Measurements from PubChem BioAssay AID2060507 (Molecular Pharmacology Branch, DTP, NCI, 2025).
pIC50: −log10 of the molar value.

Test system: 519858-162-T-J1-PDC complex spheroid viability
Experiment: Anticancer human tumor 519858-162-T-J1-PDC patient-derived colon adenocarcinoma cell line growth inhibition [GQUAD]
Details: for pIC50: curve of first compound; for viability, T/C: stronger effect = lower value; active = viability on the fitted dose curve at most 10% of control; inactive = the rest
In short: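 Tumor cells were grown as complex spheroids with HUVEC endothelial cells and mesenchymal stem cells as stroma. G-quadruplex stabilizers were combined with targeted agents over half-log dilutions from near the clinical Cmax, or from 10 microM.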

[1] = second compound 0.0316 µM, first compound 0.0316 µM
[2] = second compound 0.0316 µM, first compound 0.1 µM
[3] = second compound 0.0316 µM, first compound 0.316 µM
[4] = second compound 0.0316 µM, first compound 1 µM
[5] = second compound 0.0316 µM, first compound 3.16 µM
[6] = second compound 0.0316 µM, first compound 10 µM
[7] = second compound 0.1 µM, first compound 0.0316 µM
[8] = second compound 0.1 µM, first compound 0.1 µM
[9] = second compound 0.1 µM, first compound 0.316 µM
[10] = second compound 0.1 µM, first compound 1 µM
[11] = second compound 0.1 µM, first compound 3.16 µM
[12] = second compound 0.1 µM, first compound 10 µM
[13] = second compound 0.316 µM, first compound 0.0316 µM
[14] = second compound 0.316 µM, first compound 0.1 µM
[15] = second compound 0.316 µM, first compound 0.316 µM
[16] = second compound 0.316 µM, first compound 1 µM
[17] = second compound 0.316 µM, first compound 3.16 µM
[18] = second compound 0.316 µM, first compound 10 µM
[19] = second compound 1 µM, first compound 0.0316 µM
[20] = second compound 1 µM, first compound 0.1 µM
[21] = second compound 1 µM, first compound 0.316 µM
[22] = second compound 1 µM, first compound 1 µM
[23] = second compound 1 µM, first compound 3.16 µM
[24] = second compound 1 µM, first compound 10 µM
[25] = second compound 3.16 µM, first compound 0.0316 µM
[26] = second compound 3.16 µM, first compound 0.1 µM
[27] = second compound 3.16 µM, first compound 0.316 µM
[28] = second compound 3.16 µM, first compound 1 µM
[29] = second compound 3.16 µM, first compound 3.16 µM
[30] = second compound 3.16 µM, first compound 10 µM
[31] = second compound 10 µM, first compound 0.0316 µM
[32] = second compound 10 µM, first compound 0.1 µM
[33] = second compound 10 µM, first compound 0.316 µM
[34] = second compound 10 µM, first compound 1 µM
[35] = second compound 10 µM, first compound 3.16 µM
[36] = second compound 10 µM, first compound 10 µM
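Note: spheroids exposed to compounds for 7 days.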
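Throughout, for viability, T/C: 100% = DMSO vehicle control viability.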

C#Cc1c(F)ccc2cc(O)cc(-c3ncc4c(N5CC6CCC(C5)N6)nc(OCC56CCCN5CC(F)C6)nc4c3F)c12 (stereo unspecified) + CN(C)c1ccc(Nc2c3ccc(NC(=O)CCN4CCCC4)cc3nc3cc(NC(=O)CCN4CCCC4)ccc23)cc1
< 5.00: pIC50 (second compound 0.0316 µM) | pIC50 (second compound 0.1 µM) | pIC50 (second compound 0.316 µM) | pIC50 (second compound 1 µM) | pIC50 (second compound 3.16 µM) | pIC50 (second compound 10 µM)
inactive: viability, T/C [1] 117% | viability, T/C [2] 100% | viability, T/C [3] 99.8% | viability, T/C [4] 70.8% | viability, T/C [5] 72% | viability, T/C [6] 99.5% | viability, T/C [7] 86.2% | viability, T/C [8] 85.3% | viability, T/C [9] 89.4% | viability, T/C [10] 93.2% | viability, T/C [11] 70.2% | viability, T/C [12] 62.7% | viability, T/C [13] 134% | viability, T/C [14] 87.8% | viability, T/C [15] 93.1% | viability, T/C [16] 77.3% | viability, T/C [17] 82.1% | viability, T/C [18] 77.6% | viability, T/C [19] 112% | viability, T/C [20] 97.4% | viability, T/C [21] 78.1% | viability, T/C [22] 66.2% | viability, T/C [23] 91.7% | viability, T/C [24] 62% | viability, T/C [25] 92% | viability, T/C [26] 85.5% | viability, T/C [27] 118% | viability, T/C [28] 74.5% | viability, T/C [29] 72.9% | viability, T/C [30] 62.9% | viability, T/C [31] 66.9% | viability, T/C [32] 55% | viability, T/C [33] 77.8% | viability, T/C [34] 48.9% | viability, T/C [35] 89.3% | viability, T/C [36] 55.6%

C=CCn1c(=O)c2cnc(Nc3ccc(N4CCN(C)CC4)cc3)nc2n1-c1cccc(C(C)(C)O)n1 + CN(C)c1ccc(Nc2c3ccc(NC(=O)CCN4CCCC4)cc3nc3cc(NC(=O)CCN4CCCC4)ccc23)cc1
< 5.00: pIC50 (second compound 0.0316 µM) | pIC50 (second compound 0.1 µM) | pIC50 (second compound 0.316 µM) | pIC50 (second compound 1 µM) | pIC50 (second compound 3.16 µM) | pIC50 (second compound 10 µM)
inactive: viability, T/C [1] 95.3% | viability, T/C [2] 120% | viability, T/C [3] 117% | viability, T/C [4] 83.3% | viability, T/C [5] 75.2% | viability, T/C [6] 120% | viability, T/C [7] 150% | viability, T/C [8] 86.8% | viability, T/C [9] 92.5% | viability, T/C [10] 64.6% | viability, T/C [11] 88.4% | viability, T/C [12] 67.6% | viability, T/C [13] 112% | viability, T/C [14] 89.7% | viability, T/C [15] 88.9% | viability, T/C [16] 63.8% | viability, T/C [17] 85.1% | viability, T/C [18] 104% | viability, T/C [19] 72.3% | viability, T/C [20] 74.7% | viability, T/C [21] 61.4% | viability, T/C [22] 65% | viability, T/C [23] 80.4% | viability, T/C [24] 80.2% | viability, T/C [25] 77.7% | viability, T/C [26] 62% | viability, T/C [27] 66.7% | viability, T/C [28] 67.6% | viability, T/C [29] 62.1% | viability, T/C [30] 91.1% | viability, T/C [31] 78% | viability, T/C [32] 63.8% | viability, T/C [33] 57.7% | viability, T/C [34] 62% | viability, T/C [35] 89.3% | viability, T/C [36] 137%

CC(=O)O[C@H]1C(=O)[C@@]2(C)[C@H]([C@H](OC(=O)c3ccccc3)[C@]3(O)C[C@H](OC(=O)[C@H](O)[C@@H](NC(=O)c4ccccc4)c4ccccc4)C(C)=C1C3(C)C)[C@]1(OC(C)=O)CO[C@@H]1C[C@@H]2O + CN(C)c1ccc(Nc2c3ccc(NC(=O)CCN4CCCC4)cc3nc3cc(NC(=O)CCN4CCCC4)ccc23)cc1
< 5.00: pIC50 (second compound 0.0316 µM) | pIC50 (second compound 0.1 µM) | pIC50 (second compound 0.316 µM) | pIC50 (second compound 1 µM) | pIC50 (second compound 3.16 µM) | pIC50 (second compound 10 µM)
inactive: viability, T/C [1] 84.6% | viability, T/C [2] 95.5% | viability, T/C [3] 137% | viability, T/C [4] 86.5% | viability, T/C [5] 61.9% | viability, T/C [6] 119% | viability, T/C [7] 74.1% | viability, T/C [8] 134% | viability, T/C [9] 89.5% | viability, T/C [10] 82% | viability, T/C [11] 111% | viability, T/C [12] 98.4% | viability, T/C [13] 89.7% | viability, T/C [14] 86.5% | viability, T/C [15] 96.8% | viability, T/C [16] 69.7% | viability, T/C [17] 92% | viability, T/C [18] 115% | viability, T/C [19] 87.4% | viability, T/C [20] 74.9% | viability, T/C [21] 70.7% | viability, T/C [22] 64.5% | viability, T/C [23] 84.8% | viability, T/C [24] 86.3% | viability, T/C [25] 79.1% | viability, T/C [26] 68.1% | viability, T/C [27] 70.8% | viability, T/C [28] 55.3% | viability, T/C [29] 75.9% | viability, T/C [30] 84.6% | viability, T/C [31] 68.2% | viability, T/C [32] 62.4% | viability, T/C [33] 63.9% | viability, T/C [34] 55.1% | viability, T/C [35] 80.3% | viability, T/C [36] 72.7%
